The values that follow come from patent publication US11524977B2, “Ultrasound-assisted simulated digestion method of milk protein active peptide and application thereof in health foods” (JIANGSU UNIVERSITY, priority 2017, dated 2022).

For experiment [1] the following is noted: literature report, in words; cited from earlier work.
The next experiment concerns VCAM-1. As to conditions: synthesized peptide 100 μM.
Another experiment deals with ICAM-1. The conditions noted are these: synthesized peptide 100 μM.

Several values for one entry are separate records, joined by “and”; a condition that tells them apart may be missing. Equal values may be shown once.

Procedure for ICAM-1: (§1) The peptides were subjected to study the anti-inflammatory activity; the levels of intercellular adhesion molecule (ICAM-1) and vascular cell adhesion molecule (VCAM-1) expressed in EA.hy926 cells were detected by Western blot as inflammatory biomarkers. The EA, hy926 cells with passage number <12 were grown in 48-well plates. The cells reaching 80-90% confluence were treated with various concentrations (2.5 mg/mL of hydrolysates and digests, 0.2 mM and 3.0 mM of synthetic peptides) of the samples for 18 h. Then the cells were stimulated with TNF-α at 10 ng/mL and incubated for an additional 6 h in order to induce inflammation.
(§2) After the treatment period, the culture medium of the EA. hy926 cells was discarded and a boiling Laemmle buffer containing 0.2% TritonX-100 and 50 μM dithiothreitol was added to lysate the cells. The cell lysates were then run on 9% sodium dodecyl sulfate polyacrylamide gel electrophoresis. The gels were transferred onto nitrocellulose membranes, and immunoblotted with anti-ICAM-1/anti-VCAM-1 antibodies. The concentration of antibody to α-tubulin used was 0.4 μg/mL, while that for all other antibodies was 0.1 μg/mL. The protein bands were scanned using Licor Odyssey BioImager (Licor Biosciences, Lincoln, NB, USA) and quantified by densitometry using Image Studio Lite 5.2.
Procedure for VCAM-1: as §1, §2

In the case of “AASDISLLDAQSAPLR [peptide obtained by enzymolysis of β-LG]”, the antibacterial activity entry in experiment [1] is given as “strong antibacterial activity”. Take “IPAVFK: peptide obtained by enzymolysis of β-LG (UniProt P02754 94-99, looked up, fragment)”: the antibacterial activity entry in experiment [1] is given as “strong antibacterial activity”. As for Leu-Gln-Tyr [LQY], the “VCAM-1 (TNF-α)” value with VCAM-1 was 33.7 TNF-α and 33.7 ± 6.9 TNF-α. The “ICAM-1 (%TNF-α)” value in the experiment with ICAM-1 was 48.2 %TNF-α and 48.2 ± 6.3 %TNF-α. On to Phe-Tyr-Gln-Ala [FYQA], for which the “VCAM-1 (TNF-α)” value in the experiment on VCAM-1 is 41.3 TNF-α and 41.3 ± 10.6 TNF-α. For the same substance, the “ICAM-1 (%TNF-α)” value with ICAM-1 is 56.6 %TNF-α and 56.6 ± 9.0 %TNF-α. In the case of “VLVLDTDYK [peptide obtained by enzymolysis of β-LG]”, the antibacterial activity result in experiment [1] is “strong antibacterial activity”.
